Test system: Aorta
Assay: Inhibition of phenylephrine-induced contractions in Chinchilla rabbit aortic rings administered at the beginning of the last resting period of 28 mins
Format: functional
Conditions: Oryctolagus cuniculus

SMILES: COC(=O)Nc1c(N)nc(-c2nn(Cc3ccccc3F)c3ncc(F)cc23)nc1N [VERICIGUAT]
- IC50: 692 nM
